Experimental data reported in patent US20210353626A1, “BETA-ADRENERGIC RECEPTOR ALLOSTERIC MODULATORS” (THE REGENTS OF THE UNIVERSITY OF CALIFORNIA, priority 2018, published 2021).

What was measured:
β2AR [1] = target: T1, β2AR (Homo sapiens, UniProt P07550); experiment: β-arrestin-2 recruitment assay (PathHunter enzyme fragment complementation), norepinephrine-stimulated; type: cell-based; conditions: for negative allosteric effect on norepinephrine-stimulated β-arrestin 2 recruitment (in words): analogs tested at 10 μM and 30 μM compared to norepinephrine alone (FIG. 9); for inhibition at 30 µM: arrestin recruitment stimulated by norepinephrine after preincubation with 30 μM of the test compound; for inhibition at 30 µM / inhibition at 10 µM: read-out: attenuation of Emax (maximum efficacy of norepinephrine); for inhibition at 10 µM: arrestin recruitment stimulated by norepinephrine, attenuating effect at 10 μM of the test compound
T1 construct: host or cells: HEK293 cells stably expressing (EA)-β-arrestin-2
Protocol: (§1) β-Arrestin-2 Recruitment Assay. Determination of β-arrestin-2 recruitment was performed applying the PathHunter assay (DiscoverX, Birmingham, U.K.) which is based on fragment complementation of β-galactosidase in HEK293 cells stably expressing (EA)-β-arrestin-2 and being transiently transfected with a receptor tagged to the PK fragment. In general, cells were transfected employing Mirus TransIT-293 (peqlab, Erlangen, Germany) and incubated in DMEM/F12 medium (Life Technologies, Darmstadt, Germany) at 37° C. and 5% of CO2. After 24 hrs cells were detached with Versene (Life Technologies) and transferred into 384-well plates (white plate, transparent bottom, Greiner Bio-One, Frickenhausen, Germany) at a density of 5000 cells/well using the medium CP4 Reagent (DiscoverX). After further 24 hrs of incubation test compounds dissolved in PBS were added to the cells at a final volume of 25 μL and incubated at 37° C. for a distinct time which was optimized for each receptor (details are summarized in the supporting information). Determination of β-arrestin-2 recruitment was started by adding detection mix, incubation at room temperature for 60 min and measuring chemoluminescence with a Clariostar plate reader (BMG, Ortenberg, Germany). For measuring allosteric effects the modulator was preincubated with the cells at a distinct concentration for 30 min followed by the addition of reference agonist. Data analysis of functional experiments were performed by normalizing the raw data relative to basal activity (0%) and the maximum effect of the reference agonist (100%). Normalized curves from three to seven individual experiments each done as duplicate were analyzed by non-linear regression applying the algorithms in Prism 6.0 (GraphPad, San Diego, Calif.) to get dose-response curves representing average EC50 and Emax value.
β-Arrestin-2 Recruitment Assay. β-Arrestin-2 recruitment was performed applying the fragment complementation assay PathHunter (DiscoverX) with HEK293 cells stably expressing (EA)-β-arrestin-2. The appropriate receptor was transiently transfected when using a specific pCMV vectors with the PK-tag located at different distances downstream of the C-terminus of the inserted receptor (PK1, PK2 and PK-ARMS2, purchased from DiscoverX, Birmingham, UK). ADRB2-PK encoding the human β2AR was purchased from DiscoverX, while all other vectors with related GPCRs were engineered by inserting the DNA of the appropriate receptor in frame into the different PK constructs further excluding the stop codon. Mutants of the β2AR were done applying polymerase chain reaction with appropriate primers.

[2] = system: other Family A GPCRs (α2AAR, 5-HT1AR, M2AChR, D2longDR, PAR2, NTS1R, μOR, κOR, δOR); experiment: β-arrestin-2 recruitment assay, subtype selectivity; type: cell-based
Protocol: as §1
(§2) β-Arrestin-2 Recruitment Assay. β-Arrestin-2 recruitment was performed applying the fragment complementation assay PathHunter (DiscoverX) with HEK293 cells stably expressing (EA)-β-arrestin-2. […]

α1AAR = target: T2, α1AAR (Homo sapiens, UniProt P35348); experiment: as above; type: cell-based
T2 construct: expressed in transfected cells; host or cells: HEK293 cells stably expressing (EA)-β-arrestin-2
T2 sequence (P35348 1-466): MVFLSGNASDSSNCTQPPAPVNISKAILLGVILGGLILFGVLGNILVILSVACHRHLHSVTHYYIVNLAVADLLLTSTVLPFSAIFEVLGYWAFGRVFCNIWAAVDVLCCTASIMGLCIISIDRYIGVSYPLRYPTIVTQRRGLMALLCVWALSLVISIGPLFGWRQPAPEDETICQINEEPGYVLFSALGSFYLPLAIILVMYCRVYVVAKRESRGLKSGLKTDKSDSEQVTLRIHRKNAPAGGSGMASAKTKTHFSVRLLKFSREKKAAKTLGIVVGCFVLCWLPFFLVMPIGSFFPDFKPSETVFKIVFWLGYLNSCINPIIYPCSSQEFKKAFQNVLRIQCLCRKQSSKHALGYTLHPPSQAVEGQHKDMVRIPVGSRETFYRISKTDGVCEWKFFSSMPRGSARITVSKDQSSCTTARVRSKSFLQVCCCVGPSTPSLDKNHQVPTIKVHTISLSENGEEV
Protocol: as §1, §2

β1AR = target: T3, β1AR (Mus musculus, UniProt P34971); experiment: as above; type: cell-based
T3 construct: expressed in transfected cells; host or cells: HEK293 cells stably expressing (EA)-β-arrestin-2
Protocol: as §1, §2

[3] = system: β2AR E122^3.41 mutants (E122L, E122Q, E122R); experiment: Radioligand binding assay with [3H]DHAP, E122 mutants; design: species or system human; conditions: all of the mutants, relative to wild type
Protocol: Membranes prepared from Sf9 cells infected with baculoviruses expressing β2AR (wt) or E122 mutants in the absence or presence of co-expressed Gs heterotrimer were assessed by radioligand binding with [^3H]DHAP. […] Ki's were determined using Graphpad (Prism, San Diego) using the Kd of [^3H]DHAP specific for β2AR (wt) and each mutant, according to the Cheng-Prusoff equation. Values for high affinity agonist site (Khigh) and low affinity site (Klow) from membranes prepared from β2AR (wt) or mutants co-infected with Gs heterotrimer were determined by non-linear regression fitting (2-site) using Kd values of [^3H]DHAP, as above (Graphpad, San Diego).
Radioligand binding assay. […] Samples were taken at varying time points, filtered and washed as described below to remove free [^3H]formoterol. For [^3H]DHAP saturation isotherms of β2AR and mutants, membranes were incubated with varying concentrations of [^3H]DHAP and filtered as described below. Samples were subject to rapid filtration through GF/B membranes and rinsed with ice cold binding buffer to remove free [^3H]probe. Filter plates were dried before adding Microscint 0 and counting bound [^3H]probe using a Packard TopCount. All data were analyzed using Graphpad (Prism, San Diego Calif.).

β2AR [4] = target: T1, β2AR; experiment: cAMP accumulation assay (FRET-Epac sensor); type: cell-based
Protocol: cAMP accumulation assays. Intact cell cAMP accumulation was measured using the FRET-epac sensor in stable HEK293-Epac cells endogenously expressing β2AR or in CHO cells co-transfected with Epac and β2AR or the mutants. Cells were harvested with lifting buffer (20 mM HEPES, pH 7.4, 150 mM NaCl and 0.68 mM EDTA), centrifuged and resuspended in HBSS-HEPES (Hank's Balanced Salt Solution plus 20 mM HEPES, pH 7.4) containing 0-150 μM modulator or vehicle (for a final assay concentration of 0-100 μM). This cell suspension (100 μL) was pipetted into the wells of a 96 well plate (black with clear bottom). After 20 min in the dark at 37° C., 50 μL of HBSS-HEPES buffer at 37° C. containing 1B MX (1 mM final), ascorbic acid (1 mM final), and norepinephrine or epinephrine (0-100 μM final) was added. The CFP/YFP ratio of the Epac-cAMP FRET sensor was immediately measured for 15 min using wavelengths of 435 nm for excitation with 485 nm and 530 nm for emission using a SpectraMax M5 (Molecular Devices).

T1 sequence (P07550 whole entry, the tested form may be a part): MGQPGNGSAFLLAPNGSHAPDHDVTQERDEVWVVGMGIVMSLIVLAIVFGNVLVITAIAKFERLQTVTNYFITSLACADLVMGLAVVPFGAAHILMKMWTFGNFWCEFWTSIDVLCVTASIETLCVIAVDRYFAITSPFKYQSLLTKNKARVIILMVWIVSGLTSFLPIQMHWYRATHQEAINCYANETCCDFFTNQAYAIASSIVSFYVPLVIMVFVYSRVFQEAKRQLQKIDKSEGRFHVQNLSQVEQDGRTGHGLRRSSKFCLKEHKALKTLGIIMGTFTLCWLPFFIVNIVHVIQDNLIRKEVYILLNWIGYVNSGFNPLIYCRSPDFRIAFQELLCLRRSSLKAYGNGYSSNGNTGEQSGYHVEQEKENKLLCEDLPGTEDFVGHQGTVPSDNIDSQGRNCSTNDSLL
T3 sequence (P34971 whole entry): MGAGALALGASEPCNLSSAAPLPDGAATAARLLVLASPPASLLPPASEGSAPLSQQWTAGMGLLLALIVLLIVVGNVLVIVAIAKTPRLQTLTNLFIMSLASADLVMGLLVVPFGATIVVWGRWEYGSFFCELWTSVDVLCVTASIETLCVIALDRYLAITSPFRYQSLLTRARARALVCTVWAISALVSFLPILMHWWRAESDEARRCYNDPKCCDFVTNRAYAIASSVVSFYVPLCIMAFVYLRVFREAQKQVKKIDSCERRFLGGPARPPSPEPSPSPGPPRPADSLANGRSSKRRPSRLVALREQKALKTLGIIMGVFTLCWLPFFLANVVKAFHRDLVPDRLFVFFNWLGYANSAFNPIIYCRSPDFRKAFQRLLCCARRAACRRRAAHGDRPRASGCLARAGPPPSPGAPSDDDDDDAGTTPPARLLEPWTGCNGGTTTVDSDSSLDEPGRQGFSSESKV

SMILES: Nc1nc(Nc2ccccc2)nc2cccc(Br)c12 [AS094, 5-Bromo-N^2-phenylquinazoline-2,4-diamine]
- negative allosteric effect on norepinephrine-stimulated β-arrestin 2 recruitment (in words) (β2AR [1]): reduced allosteric modulation
- inhibition at 30 µM (β2AR [1]): 31 to 70%

SMILES: Nc1nc(Nc2ccccc2)nc2cccc(Cl)c12 [AS098, 5-Chloro-N^2-phenylquinazoline-2,4-diamine]
- inhibition at 30 µM (β2AR [1]): 31 to 70%

SMILES: Nc1nc(Nc2ccc(S(N)(=O)=O)cc2)nc2ccccc12 [AS197, 4-((4-Aminoquinazolin-2-yl)amino)benzenesulfonamide]
- inhibition at 30 µM (β2AR [1]): < 30%

SMILES: CNC(=O)c1ccc(Nc2nc(N)c3ccccc3n2)cc1 [AS198, 4-((4-Aminoquinazolin-2-yl)amino)-N-methylbenzamide]
- inhibition at 30 µM (β2AR [1]): < 30%

SMILES: COC(=O)c1ccc(Nc2nc(N)c3c(F)cccc3n2)c(O)c1 [AS202, Methyl 4-((4-amino-5-fluoroquinazolin-2-yl)amino)-3-hydroxybenzoate]
- inhibition at 30 µM (β2AR [1]): < 30%

SMILES: COC(=O)c1ccc(Nc2nc(N)c3c(Cl)cccc3n2)cc1 [AS228, Methyl 4-((4-amino-5-chloroquinazolin-2-yl)amino)benzoate]
- inhibition at 30 µM (β2AR [1]): < 30%

SMILES: Nc1nc(Nc2ccccc2)nc2c(Br)cccc12 [AS241, 8-Bromo-N^2-phenylquinazoline-2,4-diamine]
- negative allosteric effect on norepinephrine-stimulated β-arrestin 2 recruitment (in words) (β2AR [1]): reduced allosteric modulation
- inhibition at 30 µM (β2AR [1]): 31 to 70%

SMILES: Nc1nc(Nc2ccccc2)nc2c(Cl)cccc12 [AS328, 8-Chloro-N^2-phenylquinazoline-2,4-diamine]
- inhibition at 30 µM (β2AR [1]): 31 to 70%

SMILES: Nc1nc(Nc2ccccc2)nc2ccc(Br)cc12 [AS408, 6-Bromo-N^2-phenylquinazoline-2,4-diamine]
- allosteric activity at the other GPCRs tested [2]: no allosteric activity
- allosteric activity at α1AR (α1AAR): weak NAM
- potency at β1AR relative to β2AR (β1AR): small reduction in the potency
- effect of AS408 on agonist binding affinity at E122 mutants [3]: reduced relative to the wild-type receptor

SMILES: Nc1nc(Nc2ccccc2)nc2cc(Br)ccc12 [AS436, 7-Bromo-N^2-phenylquinazoline-2,4-diamine]
- negative allosteric effect on norepinephrine-stimulated β-arrestin 2 recruitment (in words) (β2AR [1]): reduced allosteric modulation
- inhibition at 30 µM (β2AR [1]): 31 to 70%

SMILES: CCCNc1nc(N)c2ccccc2n1 [BRAC1-5]
- negative allosteric effect on norepinephrine-stimulated β-arrestin 2 recruitment (in words) (β2AR [1]): reduces the negative allosteric effect

SMILES: Nc1nc(Nc2cccc(O)c2)nc2ccccc12 [BRAC1-23]
- negative allosteric effect on norepinephrine-stimulated β-arrestin 2 recruitment (in words) (β2AR [1]): Reduction of the allosteric effect

SMILES: Nc1nc(Nc2ccccc2)nc2ccccc12 [BRAC1]
- negative allosteric regulation of cAMP accumulation (in words) (β2AR [4]): weak, negative allosteric regulation
- negative allosteric effect on norepinephrine-stimulated β-arrestin 2 recruitment (in words) (β2AR [1]): weak, negative allosteric regulation

SMILES: Nc1nc(Nc2ccccc2)nc2ccc(Cl)cc12 [DD282, 6-Chloro-N^2-phenylquinazoline-2,4-diamine]
- negative allosteric effect on norepinephrine-stimulated β-arrestin 2 recruitment (in words) (β2AR [1]): activity comparable to Br
- inhibition at 30 µM (β2AR [1]): 71 to 100%

SMILES: Nc1nc(Nc2ccccc2CO)nc2ccc(Br)cc12 [DD283, 6-Bromo-N^2-(2-hydroxymethyl)phenylquinazoline-2,4-diamine]
- inhibition at 30 µM (β2AR [1]): < 30%

SMILES: Nc1nc(Nc2ccccc2)nc2ccc(F)cc12 [DD284, 6-Fluoro-N^2-phenylquinazoline-2,4-diamine]
- negative allosteric effect on norepinephrine-stimulated β-arrestin 2 recruitment (in words) (β2AR [1]): less potent
- inhibition at 30 µM (β2AR [1]): < 30%

SMILES: Brc1ccc2nc(Nc3ccccc3)ncc2c1 [DD288, 6-Bromo-/V-phenylquinazolin-2-amine]
- negative allosteric effect on norepinephrine-stimulated β-arrestin 2 recruitment (in words) (β2AR [1]): attenuated negative allosteric effect
- inhibition at 30 µM (β2AR [1]): 31 to 70%

SMILES: Nc1nc(Nc2ccc3ccccc3c2)nc2ccc(Br)cc12 [DD290, 6-bromo-N2-(naphthalen-2-yl)quinazoline-2,4-diamine]
- inhibition at 10 µM (β2AR [1]): < 30%

SMILES: Nc1nc(Nc2cccc(CCC(=O)O)c2)nc2ccc(Br)cc12 [DD291, 3-(3-((4-amino-6-bromoquinazolin-2-yl)amino)phenyl)propanoic acid]
- inhibition at 30 µM (β2AR [1]): < 30%

SMILES: Nc1nc(Nc2ccccc2)nc2ccc(C(F)(F)F)cc12 [DD293, 6-Trifluoromethyl-N^2-phenylquinazoline-2,4-diamine]
- negative allosteric effect on norepinephrine-stimulated β-arrestin 2 recruitment (in words) (β2AR [1]): activity comparable to Br
- inhibition at 30 µM (β2AR [1]): 71 to 100%

SMILES: Nc1nc(Nc2cccc(CCC(=O)OCC(O)CO)c2)nc2ccc(Br)cc12 (stereo not drawn) [DD294, 2,3-dihydroxypropyl-(3-((4-amino-6-bromoquinazolin-2-yl)amino)phenyl)propanoate]
- inhibition at 30 µM (β2AR [1]): < 30%

SMILES: COC(=O)c1ccc(Nc2nc(N)c3ccccc3n2)c(O)c1 [JT11, Methyl 4-((4-aminoquinazolin-2-yl)amino)-3-hydroxybenzoate]
- inhibition at 10 µM (β2AR [1]): < 30%

SMILES: Nc1nc(Nc2ccccc2O)nc2cccc(Cl)c12 [JT12, 2-((4-Amino-5-chloroquinazolin-2-yl)amino)phenol]
- inhibition at 30 µM (β2AR [1]): < 30%

SMILES: CC(C)c1ccc2nc(Nc3ccccc3)nc(N)c2c1 [ST238, 6-Isopropyl-N^2-phenylquinazoline-2,4-diamine]
- inhibition at 30 µM (β2AR [1]): 31 to 70%

SMILES: Nc1nc(Nc2ccccc2)nc2ccc(I)cc12 [ST239, 6-Iodo-N^2-phenylquinazoline-2,4-diamine]
- negative allosteric effect on norepinephrine-stimulated β-arrestin 2 recruitment (in words) (β2AR [1]): activity comparable to Br
- inhibition at 30 µM (β2AR [1]): 71 to 100%

SMILES: Nc1nc(Nc2ccccc2)nc2ccc(-c3ccccc3)cc12 [ST240, N^2,6-Diphenylquinazoline-2,4-diamine]
- negative allosteric effect on norepinephrine-stimulated β-arrestin 2 recruitment (in words) (β2AR [1]): further disruption of the negative allosteric effect
- inhibition at 30 µM (β2AR [1]): 31 to 70%
